According to article PMC12615518, “Discovery of CRBN-recruiting PROTAC degraders of the METTL3-METTL14 complex” (Medicinal Chemistry Research, 2025):

Columns and labels:
METTL3 = METTL3 (Homo sapiens, UniProt Q86U44); experiment: Immunoblotting (Western blot) degradation of METTL3 in MV4-11 cells; type: cell-based; parameters: Following treatment, total cellular proteins were extracted using RIPA buffer; endogenous in cells; host or cells: MV4-11 (MV4.11) human AML cells, ATCC; settings: MV4-11 cells, 24 h; for % reduction in MV4-11 cells, 0.3 µM, METTL3 / % reduction in MV4-11 cells, 1.0 µM, METTL3 / % degradation in MV4-11 cells, 0.3 µM, METTL3 / % degradation in MV4-11 cells, 1.0 µM, METTL3: immunoblotting; for % reduction in MV4-11 cells, 0.3 µM, METTL3 / % reduction in MV4-11 cells, 1.0 µM, METTL3: nd = no degradation
METTL3, sequence (Q86U44 2-580 limits assumed): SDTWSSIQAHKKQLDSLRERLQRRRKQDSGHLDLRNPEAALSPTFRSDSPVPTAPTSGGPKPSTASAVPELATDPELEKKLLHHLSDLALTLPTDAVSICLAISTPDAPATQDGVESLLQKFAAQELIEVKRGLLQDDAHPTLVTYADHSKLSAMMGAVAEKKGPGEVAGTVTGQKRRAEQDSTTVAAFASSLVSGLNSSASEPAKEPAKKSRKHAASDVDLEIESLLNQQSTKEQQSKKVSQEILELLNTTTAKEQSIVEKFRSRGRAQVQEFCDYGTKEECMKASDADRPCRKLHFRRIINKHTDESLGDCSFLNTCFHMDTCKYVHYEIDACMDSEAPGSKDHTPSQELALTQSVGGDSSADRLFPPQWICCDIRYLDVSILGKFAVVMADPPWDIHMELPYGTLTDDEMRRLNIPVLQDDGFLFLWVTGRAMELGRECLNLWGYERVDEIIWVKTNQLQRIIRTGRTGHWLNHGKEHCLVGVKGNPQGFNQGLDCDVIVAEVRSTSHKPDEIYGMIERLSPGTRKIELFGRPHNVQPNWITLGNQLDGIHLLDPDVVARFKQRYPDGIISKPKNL
METTL3, sequence (Q9HCE5 whole entry partner): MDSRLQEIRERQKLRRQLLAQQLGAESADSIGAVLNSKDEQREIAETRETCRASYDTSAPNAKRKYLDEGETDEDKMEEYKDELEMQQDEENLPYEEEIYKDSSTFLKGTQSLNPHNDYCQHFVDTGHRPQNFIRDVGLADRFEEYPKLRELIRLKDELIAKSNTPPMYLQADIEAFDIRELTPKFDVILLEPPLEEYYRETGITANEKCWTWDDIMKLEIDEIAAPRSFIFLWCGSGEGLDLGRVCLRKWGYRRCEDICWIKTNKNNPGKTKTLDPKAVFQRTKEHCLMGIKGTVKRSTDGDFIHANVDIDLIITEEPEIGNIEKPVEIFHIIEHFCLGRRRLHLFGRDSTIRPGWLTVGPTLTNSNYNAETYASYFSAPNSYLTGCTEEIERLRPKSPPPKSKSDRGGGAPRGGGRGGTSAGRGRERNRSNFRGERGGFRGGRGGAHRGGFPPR
Experimental: (§1) All cell lines were maintained under standard conditions in a humidified atmosphere at 37 °C with 5% CO₂.
(§2) Western Blot Analysis: Following treatment, total cellular proteins were extracted using RIPA buffer (Auragene, Changsha, China). […] After washing, membranes were incubated with horseradish peroxidase (HRP)-conjugated secondary antibodies (anti-rabbit or anti-mouse IgG; 1:5000) for 2 hours at room temperature. Protein bands were visualized using an enhanced chemiluminescence (ECL) detection kit (Amersham Pharmacia), following the manufacturer's protocol. Band intensities were quantified using ImageJ software and normalized to ACTIN as a loading control. Data was analyzed using GraphPad Prism 9.

METTL14 = target: T1, METTL14 (Homo sapiens, UniProt Q9HCE5); experiment: Immunoblotting (Western blot) degradation of METTL14 in MV4-11 cells; type: cell-based; settings: MV4-11 cells, 24 h; for % reduction in MV4-11 cells, 0.3 µM, METTL14 / % reduction in MV4-11 cells, 1.0 µM, METTL14 / % degradation in MV4-11 cells, 0.3 µM, METTL14 / % degradation in MV4-11 cells, 1.0 µM, METTL14: immunoblotting; for % reduction in MV4-11 cells, 0.3 µM, METTL14 / % reduction in MV4-11 cells, 1.0 µM, METTL14: nd = no degradation
T1 construct: Following treatment, total cellular proteins were extracted using RIPA buffer; endogenous in cells; host or cells: MV4-11 (MV4.11) human AML cells, ATCC
T1 sequence (Q9HCE5 whole entry): as the sequence (Q9HCE5 whole entry partner) above
T1 sequence (Q86U44 2-580 partner): as the sequence (Q86U44 2-580 limits assumed) above
Experimental: as §1, §2

SMILES | % reduction in MV4-11 cells, 0.3 µM, METTL3 (METTL3) [%] | % reduction in MV4-11 cells, 1.0 µM, METTL3 (METTL3) [%] | % reduction in MV4-11 cells, 0.3 µM, METTL14 (METTL14) [%] | % reduction in MV4-11 cells, 1.0 µM, METTL14 (METTL14) [%] | % degradation in MV4-11 cells, 0.3 µM, METTL3 (METTL3) [%] | % degradation in MV4-11 cells, 1.0 µM, METTL3 (METTL3) [%] | % degradation in MV4-11 cells, 0.3 µM, METTL14 (METTL14) [%] | % degradation in MV4-11 cells, 1.0 µM, METTL14 (METTL14) [%] | other results
CC1(C)CCN(Cc2cc(F)c(N3CC(=O)NC4(CCN(c5cc(NCCCCC(=O)N6CCN(c7ccc8c(c7)C(=O)N(C7CCC(=O)NC7=O)C8=O)CC6)ncn5)CC4)C3)cc2F)CC1 (stereo not shown) [Compound 4a, 5-(4-(5-((6-(4-(4-((4,4-dimethylpiperidin-1-yl)methyl)-2,5-difluorophenyl)-2-oxo-1,4,9-triazaspiro[5.5]undecan-9-yl)pyrimidin-4-yl)amino)pentanoyl)piperazin-1-yl)-2-(2,6-dioxopiperidin-3-yl)isoindoline-1,3-dione] | 14 | 47 | 6 | 27 |  |  |  |  | 
CC1(C)CCN(Cc2cc(F)c(N3CC(=O)NC4(CCN(c5cc(NCCCCCC(=O)N6CCN(c7ccc8c(c7)C(=O)N(C7CCC(=O)NC7=O)C8=O)CC6)ncn5)CC4)C3)cc2F)CC1 (stereo not shown) [Compound 4b, 5-(4-(6-((6-(4-(4-((4,4-dimethylpiperidin-1-yl)methyl)-2,5-difluorophenyl)-2-oxo-1,4,9-triazaspiro[5.5]undecan-9-yl)pyrimidin-4-yl)amino)hexanoyl)piperazin-1-yl)-2-(2,6-dioxopiperidin-3-yl)isoindoline-1,3-dione] | 45 | 56 | 36 | 58 |  |  |  |  | 
CC1(C)CCN(Cc2cc(F)c(N3CC(=O)NC4(CCN(c5cc(NCCCCCCC(=O)N6CCN(c7ccc8c(c7)C(=O)N(C7CCC(=O)NC7=O)C8=O)CC6)ncn5)CC4)C3)cc2F)CC1 (stereo not shown) [Compound 4c, 5-(4-(7-((6-(4-(4-((4,4-dimethylpiperidin-1-yl)methyl)-2,5-difluorophenyl)-2-oxo-1,4,9-triazaspiro[5.5]undecan-9-yl)pyrimidin-4-yl)amino)heptanoyl)piperazin-1-yl)-2-(2,6-dioxopiperidin-3-yl)isoindoline-1,3-dione] | 43 | 62 | 46 | 61 |  |  |  |  | 
CC1(C)CCN(Cc2cc(F)c(N3CC(=O)NC4(CCN(c5cc(NCCCCCCCC(=O)N6CCN(c7ccc8c(c7)C(=O)N(C7CCC(=O)NC7=O)C8=O)CC6)ncn5)CC4)C3)cc2F)CC1 (stereo not shown) [Compound 4d, 5-(4-(8-((6-(4-(4-((4,4-dimethylpiperidin-1-yl)methyl)-2,5-difluorophenyl)-2-oxo-1,4,9-triazaspiro[5.5]undecan-9-yl)pyrimidin-4-yl)amino)octanoyl)piperazin-1-yl)-2-(2,6-dioxopiperidin-3-yl)isoindoline-1,3-dione] | 52 | 68 | 51 | 67 |  |  |  |  | 
CC1(C)CCN(Cc2cc(F)c(N3CC(=O)NC4(CCN(c5cc(NCCCCCCCCC(=O)N6CCN(c7ccc8c(c7)C(=O)N(C7CCC(=O)NC7=O)C8=O)CC6)ncn5)CC4)C3)cc2F)CC1 (stereo not shown) [Compound 4e, 5-(4-(9-((6-(4-(4-((4,4-dimethylpiperidin-1-yl)methyl)-2,5-difluorophenyl)-2-oxo-1,4,9-triazaspiro[5.5]undecan-9-yl)pyrimidin-4-yl)amino)nonanoyl)piperazin-1-yl)-2-(2,6-dioxopiperidin-3-yl)isoindoline-1,3-dione] | 38 | 52 | 39 | 53 |  |  |  |  | 
CC1(C)CCN(Cc2cc(F)c(N3CC(=O)NC4(CCN(c5cc(NCCCCCCC(=O)N6CCN(c7ccc8c(c7)CN(C7CCC(=O)NC7=O)C8=O)CC6)ncn5)CC4)C3)cc2F)CC1 (stereo not shown) [Compound 4g, 3-(5-(4-(7-((6-(4-(4-((4,4-dimethylpiperidin-1-yl)methyl)-2,5-difluorophenyl)-2-oxo-1,4,9-triazaspiro[5.5]undecan-9-yl)pyrimidin-4-yl)amino)heptanoyl)piperazin-1-yl)-1-oxoisoindolin-2-yl)piperidine-2,6-dione] | 9 | 25 | 0 | 34 |  |  |  |  | 
CC1(C)CCN(Cc2cc(F)c(N3CC(=O)NC4(CCN(c5cc(NCCCCCCCC(=O)N6CCN(c7ccc8c(c7)CN(C7CCC(=O)NC7=O)C8=O)CC6)ncn5)CC4)C3)cc2F)CC1 (stereo not shown) [Compound 4h, 3-(5-(4-(8-((6-(4-(4-((4,4-dimethylpiperidin-1-yl)methyl)-2,5-difluorophenyl)-2-oxo-1,4,9-triazaspiro[5.5]undecan-9-yl)pyrimidin-4-yl)amino)octanoyl)piperazin-1-yl)-1-oxoisoindolin-2-yl)piperidine-2,6-dione] | 46 | 69 | 40 | 64 |  |  |  |  | 
CC1(C)CCN(Cc2cc(F)c(N3CC(=O)NC4(CCN(c5cc(NCCCCCCCCC(=O)N6CCN(c7ccc8c(c7)CN(C7CCC(=O)NC7=O)C8=O)CC6)ncn5)CC4)C3)cc2F)CC1 (stereo not shown) [Compound 4i, 3-(5-(4-(9-((6-(4-(4-((4,4-dimethylpiperidin-1-yl)methyl)-2,5-difluorophenyl)-2-oxo-1,4,9-triazaspiro[5.5]undecan-9-yl)pyrimidin-4-yl)amino)nonanoyl)piperazin-1-yl)-1-oxoisoindolin-2-yl)piperidine-2,6-dione] | 52 | 73 | 54 | 72 |  |  |  |  | 
CN1C(=O)CCC(N2Cc3cc(N4CCN(C(=O)CCCCCCCCCNc5cc(N6CCC7(CC6)CN(c6cc(F)c(CN8CCC(C)(C)CC8)cc6F)CC(=O)N7)ncn5)CC4)ccc3C2=O)C1=O (stereo not shown) [Compound 4k, 3-(5-(4-(10-((6-(4-(4-((4,4-dimethylpiperidin-1-yl)methyl)-2,5-difluorophenyl)-2-oxo-1,4,9-triazaspiro[5.5]undecan-9-yl)pyrimidin-4-yl)amino)decanoyl)piperazin-1-yl)-1-oxoisoindolin-2-yl)-1-methylpiperidine-2,6-dione] |  |  |  |  |  |  |  |  | degradation of METTL3 at 1 µM (in words) (METTL3; 1 µM, Fig. 4A right): not degraded; degradation of METTL3 (in words) (METTL3; Table 1 screening): did not induce degradation; degradation of METTL14 at 1 µM (in words) (METTL14; 1 µM, Fig. 4A right): not degraded; degradation of METTL14 (in words) (METTL14; Table 1 screening): did not induce degradation
CNc1cc(N2CCC3(CC2)CN(c2cc(F)c(CN4CCC(C)(C(=O)NCCCCNc5cccc6c5C(=O)N(C5CCC(=O)NC5=O)C6=O)CC4)cc2F)CC(=O)N3)ncn1 (stereo not shown) [Compound 5a, 1-(2,5-difluoro-4-(9-(6-(methylamino)pyrimidin-4-yl)-2-oxo-1,4,9-triazaspiro[5.5]undecan-4-yl)benzyl)-N-(4-((2-(2,6-dioxopiperidin-3-yl)-1,3-dioxoisoindolin-4-yl)amino)butyl)-4-methylpiperidine-4-carboxamide] |  |  |  |  | 33 | 52 | 8 | 21 | 
CNc1cc(N2CCC3(CC2)CN(c2cc(F)c(CN4CCC(C)(C(=O)NCCCCCCNc5cccc6c5C(=O)N(C5CCC(=O)NC5=O)C6=O)CC4)cc2F)CC(=O)N3)ncn1 (stereo not shown) [Compound 5b, 1-(2,5-difluoro-4-(9-(6-(methylamino)pyrimidin-4-yl)-2-oxo-1,4,9-triazaspiro[5.5]undecan-4-yl)benzyl)-N-(6-((2-(2,6-dioxopiperidin-3-yl)-1,3-dioxoisoindolin-4-yl)amino)hexyl)-4-methylpiperidine-4-carboxamide] |  |  |  |  | 55 | 56 | 20 | 21 | 
CNc1cc(N2CCC3(CC2)CN(c2cc(F)c(CN4CCC(C)(C(=O)NCCCCCCCCNc5cccc6c5C(=O)N(C5CCC(=O)NC5=O)C6=O)CC4)cc2F)CC(=O)N3)ncn1 (stereo not shown) [Compound 5c, 1-(2,5-difluoro-4-(9-(6-(methylamino)pyrimidin-4-yl)-2-oxo-1,4,9-triazaspiro[5.5]undecan-4-yl)benzyl)-N-(8-((2-(2,6-dioxopiperidin-3-yl)-1,3-dioxoisoindolin-4-yl)amino)octyl)-4-methylpiperidine-4-carboxamide] |  |  |  |  | 50 | 54 | 20 | 24 | 
CNc1cc(N2CCC3(CC2)CN(c2cc(F)c(CN4CCC(C)(C(=O)NCCCCCCCCCCNc5cccc6c5C(=O)N(C5CCC(=O)NC5=O)C6=O)CC4)cc2F)CC(=O)N3)ncn1 (stereo not shown) [Compound 5d, 1-(2,5-difluoro-4-(9-(6-(methylamino)pyrimidin-4-yl)-2-oxo-1,4,9-triazaspiro[5.5]undecan-4-yl)benzyl)-N-(10-((2-(2,6-dioxopiperidin-3-yl)-1,3-dioxoisoindolin-4-yl)amino)decyl)-4-methylpiperidine-4-carboxamide] |  |  |  |  | 26 | 3 | 34 | 21 | 
